In PMC8847695 (Frontiers in Chemistry, 2022):

Experiments:
Format in all cases: binding
Conditions in all cases: 1 = hit, 0 = no hit
[1] = target: AAK1 (121-471) (Homo sapiens, UniProt Q2M2I8); assay: STD-NMR fragment screening, AAK1
How it was run: (§1)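 Saturation-transfer difference NMR was run at 25°C and 700 MHz with 20 µM protein, two fragments at 1 mM each, and 10% DMSO-d6. On-resonance saturation was at 0.5–0.6 ppm and off-resonance at 40 ppm, with a 3 s Gaussian-pulse train. A hit required a difference-spectrum peak at least three times the local noise.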

[2] = target: T1, CAMK1G (1-320) (Homo sapiens, UniProt Q96NX5); assay: STD-NMR fragment screening, CAMK1G
T1 construct: made in house; host or cells: E. coli BL21 (DE3) pLysS
How it was run: as §1

[3] = target: T2, IDO1 (1-435) (Homo sapiens, UniProt P14902); assay: STD-NMR fragment screening, IDO1
T2 construct: His-tag of pET15b with TEV site (thrombin site replaced) (cleaved yes); made in house; host or cells: E. coli Rosetta 2 (DE3) pLysS
How it was run: as §1

[4] = target: T3, DOT1L (1-416) (Homo sapiens, UniProt Q8TEK3); assay: STD-NMR fragment screening, DOT1L
T3 construct: made in house; host or cells: E. coli BL21 (DE3) pLysS
How it was run: as §1

T2 sequence (P14902 whole entry, the tested form may be a part): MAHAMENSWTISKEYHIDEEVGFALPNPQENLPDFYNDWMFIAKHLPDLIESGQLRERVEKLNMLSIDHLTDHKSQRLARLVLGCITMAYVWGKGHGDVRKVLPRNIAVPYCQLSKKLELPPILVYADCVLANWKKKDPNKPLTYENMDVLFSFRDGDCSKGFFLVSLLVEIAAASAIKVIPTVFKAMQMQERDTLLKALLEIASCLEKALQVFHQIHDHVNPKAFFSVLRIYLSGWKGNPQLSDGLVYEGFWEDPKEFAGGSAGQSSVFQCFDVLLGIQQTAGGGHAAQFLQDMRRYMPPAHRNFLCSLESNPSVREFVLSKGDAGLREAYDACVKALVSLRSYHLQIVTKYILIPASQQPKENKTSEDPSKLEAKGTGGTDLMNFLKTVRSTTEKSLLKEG
Chain of AAK1 (121-471) (Q2M2I8 46-315 limits assumed): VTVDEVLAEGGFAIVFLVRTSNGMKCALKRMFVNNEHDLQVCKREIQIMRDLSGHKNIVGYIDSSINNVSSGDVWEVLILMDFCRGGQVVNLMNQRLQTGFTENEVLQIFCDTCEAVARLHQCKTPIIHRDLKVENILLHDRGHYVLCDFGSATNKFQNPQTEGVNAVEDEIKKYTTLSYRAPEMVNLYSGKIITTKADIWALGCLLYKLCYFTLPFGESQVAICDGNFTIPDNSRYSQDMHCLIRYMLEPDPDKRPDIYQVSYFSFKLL
T1 sequence (Q96NX5 1-320): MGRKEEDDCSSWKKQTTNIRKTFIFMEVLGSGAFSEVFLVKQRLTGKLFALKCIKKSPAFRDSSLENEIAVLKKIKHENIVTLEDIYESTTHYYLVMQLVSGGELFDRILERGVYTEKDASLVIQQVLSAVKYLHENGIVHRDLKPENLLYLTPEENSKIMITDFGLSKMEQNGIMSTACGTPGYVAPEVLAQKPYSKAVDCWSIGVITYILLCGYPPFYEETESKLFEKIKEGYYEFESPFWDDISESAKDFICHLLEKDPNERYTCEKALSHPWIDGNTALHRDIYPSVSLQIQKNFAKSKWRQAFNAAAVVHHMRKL
T3 sequence (Q8TEK3 1-416): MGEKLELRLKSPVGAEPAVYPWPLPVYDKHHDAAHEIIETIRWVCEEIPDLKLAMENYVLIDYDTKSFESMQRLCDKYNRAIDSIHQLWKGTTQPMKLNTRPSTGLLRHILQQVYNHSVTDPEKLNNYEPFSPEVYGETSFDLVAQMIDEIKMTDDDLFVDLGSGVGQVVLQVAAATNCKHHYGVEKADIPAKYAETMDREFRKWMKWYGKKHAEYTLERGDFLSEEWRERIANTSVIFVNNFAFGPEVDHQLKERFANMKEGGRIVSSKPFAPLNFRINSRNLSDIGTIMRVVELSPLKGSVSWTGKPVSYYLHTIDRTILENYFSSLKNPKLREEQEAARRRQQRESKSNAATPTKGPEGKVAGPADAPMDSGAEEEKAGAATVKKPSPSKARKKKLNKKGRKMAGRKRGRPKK

Structure (SMILES) | AAK1 (STD-NMR hit flag) [1] | CAMK1G (STD-NMR hit flag) [2] | IDO1 (STD-NMR hit flag) [3] | DOT1L (STD-NMR hit flag) [4]
Cn1c2nc(Br)nc-2c(O)n(C)c1=O [Fragment B02291266] | 1 | 1 | 1 | 0
Clc1cnc(Cl)nc1 [Fragment B02291267] | 0 | 0 | 0 | 0
Clc1ccncc1 [Fragment B02291269] | 0 | 0 | 0 | 0
CCC(N)c1ccc(Cl)cc1 (stereo not shown) [Fragment B02291270] | 1 | 1 | 1 | 1
N#Cc1ccnc(Cl)c1 [Fragment B02291271] | 0 | 0 | 0 | 0
Brc1noc(C2CC2)n1 [Fragment B02291272] | 0 | 0 | 0 | 0
CNc1cc(Cl)c2c(c1)OCO2 [Fragment B02294481] | 0 | 0 | 0 | 0
FC(F)(F)c1cnc(Cl)nc1 [Fragment B02294482] | 0 | 0 | 0 | 0
Cc1n[nH]c(C(=O)O)c1Br [Fragment B02294483] | 1 | 0 | 0 | 0
Oc1ccc(Cl)cc1 [Fragment B02294485] | 0 | 0 | 0 | 0
Clc1cnc2ccccn12 [Fragment B02294486] | 1 | 1 | 1 | 0
COc1cc(Cl)cnc1OC [Fragment B02297394] | 1 | 1 | 1 | 0
Nc1ccc(Br)c(C(=O)O)n1 [Fragment B02297395] | 0 | 0 | 0 | 0
COc1ncc(Br)cc1C(=O)O [Fragment B02297396] | 0 | 0 | 0 | 0
Fc1cc(C2CNCCN2)c(Cl)cc1Cl (stereo not shown) [Fragment B02297397] | 0 | 0 | 0 | 0
O=C(O)c1sccc1Cl [Fragment B02297398] | 0 | 0 | 0 | 0
OB(O)c1ccncc1Br [Fragment B02297399] | 0 | 0 | 0 | 0
O=C(c1ccc(Cl)cc1)N1CCOCC1 [Fragment B02297400] | 0 | 0 | 0 | 0
Oc1cccc(O)c1Br [Fragment B02297401] | 1 | 0 | 0 | 0
Cc1cnc(C)c(Cl)n1 [Fragment B02297402] | 1 | 0 | 0 | 0
O=C(O)c1cnccc1Br [Fragment B02297403] | 0 | 0 | 0 | 0
CN1CCN(c2ccc(Br)cn2)CC1 [Fragment B02297404] | 0 | 0 | 0 | 0
Cc1c(Cl)cnc(N)c1Cl [Fragment B02297405] | 1 | 1 | 0 | 1
Cc1cc(N)c(Br)cn1 [Fragment B02297406] | 1 | 0 | 0 | 0
COC(=O)c1cc(N)c(Cl)s1 [Fragment B02297407] | 1 | 0 | 0 | 1

Structure (SMILES) | AAK1 (STD-NMR hit flag) [1] | CAMK1G (STD-NMR hit flag) [2] | IDO1 (STD-NMR hit flag) [3] | DOT1L (STD-NMR hit flag) [4]
Brc1ccc(C2CNCCN2)s1 (stereo not shown) [Fragment B02297408] | 0 | 0 | 0 | 0
Nc1ccc2[nH]cnc2c1Br [Fragment B02297409] | 1 | 0 | 0 | 0
OC1CCN(c2cc(Cl)ncn2)CC1 [Fragment B02297410] | 1 | 0 | 0 | 0
O=C(O)c1c(Cl)cncc1Cl [Fragment B02297411] | 0 | 0 | 1 | 0
Nc1nc(Cl)c(NC=O)c(Cl)n1 [Fragment B02297412] | 0 | 0 | 0 | 0
O=C(O)c1cc(Br)c(O)cc1O [Fragment B02297413] | 1 | 0 | 1 | 0
Clc1nsnc1N1CCOCC1 [Fragment B02297414] | 0 | 0 | 0 | 0
Cn1cc(Br)c(N)n1 [Fragment B02297415] | 0 | 0 | 0 | 0
CC(=O)Nc1ccc(Cl)c(C(=O)O)n1 [Fragment B02297416] | 0 | 0 | 0 | 0
O=C(O)C(O)c1cccc(Cl)c1 (stereo not shown) [Fragment B02297417] | 0 | 0 | 0 | 0
O=C(O)c1ncc(Cl)cc1Cl [Fragment B02297418] | 0 | 0 | 0 | 0
Cc1[nH]c(=O)[nH]c(=O)c1I [Fragment B02297420] | 1 | 0 | 1 | 1
[O-][n+]1ccc(Cl)cc1 [Fragment B02297421] | 0 | 0 | 0 | 0
Brc1cnc(N2CCNCC2)nc1 [Fragment B02297422] | 1 | 1 | 0 | 0
COc1ncc(C(=O)O)cc1Cl [Fragment B02297423] | 1 | 1 | 1 | 0
Nc1cnccc1Br [Fragment B02297424] | 1 | 1 | 0 | 0
O=c1ncc(Cl)c[nH]1 [Fragment B02297425] | 0 | 0 | 1 | 0
O=C(O)c1ccncc1Br [Fragment B02297426] | 0 | 0 | 0 | 0
O=c1cc(O)c(Cl)c[nH]1 [Fragment B02297427] | 0 | 0 | 1 | 0
Cc1ccc(C(=O)O)c(Cl)n1 [Fragment B02297428] | 0 | 0 | 0 | 0
COc1ncc(Cl)cc1C(=O)O [Fragment B02297429] | 0 | 0 | 1 | 0
Nc1ncc(C(=O)O)cc1Br [Fragment B02297655] | 0 | 0 | 0 | 0
CC(=O)CS(=O)(=O)c1cc(Cl)ccc1F [Fragment B02297765] | 0 | 0 | 0 | 0
Cn1ncc(I)c1C(=O)NN [Fragment B02297766] | 0 | 0 | 0 | 0
